Measured values published in patent US11078193B2 (priority 2014, dated 2021).

How the values were obtained:
[1] = Cytotoxicity, HepG2 cells, Resazurin assay; format: cell-based; settings: human
HBV [2] = assay: anti-HBV activity, HepG2.2.15 stable transfected cell line, HBV DNA from secreted virions by realtime PCR; format: cell-based; settings: Hepatitis B virus, 144 h, HepG2.2.15 cells, 6 days of treatment
HBV [3] = assay: anti HBV activity, HepG2.117 inducibly HBV producing cell line (Tet-off), intracellular HBV DNA by realtime PCR; format: cell-based; settings: Hepatitis B virus, 72 h, HepG2.117 cells, 3 days of treatment
[4] = ATP based toxicity assay (ATPlite), HepG2 cell line; settings: human, HepG2 cells, ATPlite (ATP levels)
Procedure, shortened: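 HepG2 cells exposed to compound, then ATPlite reagent added at 1 volume. Cellular ATP read by luminescence as a viability measure.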

Row | SMILES | CC50 at 4 days [1] | EC50 (HBV [2]) | EC50 (HBV [3]) | melting point | CC50 at 4 days [4]
1 | Cc1cc(NC(=O)c2c(Cl)c(S(=O)(=O)N[C@H](C)C(F)(F)F)cn2C)ccn1 [Compound 8, 3-Chloro-1-methyl-N-(2-methylpyridin-4-yl)-4-{[(1R)-2,2,2-trifluoro-1-methylethyl]sulfamoyl}-1H-pyrrole-2-carboxamide] | > 25000 nM | 90 nM | 170 nM | 203.5 °C | 
2 | C[C@@H](NS(=O)(=O)c1cn(C)c(C(=O)Nc2ccnc(Cl)c2)c1F)C(C)(F)F [Compound 61, N-(2-chloro-4-pyridyl)-4-[[(1R)-2,2-difluoro-1-methyl-propyl]sulfamoyl]-3-fluoro-1-methyl-pyrrole-2-carboxamide] | > 25000 nM | 10 nM | 20 nM |  | > 25000 nM
3 | C[C@@H](NS(=O)(=O)c1cn(C)c(C(=O)Nc2ccccn2)c1Cl)C(F)(F)F [Compound 15, 3-chloro-1-methyl-N-(2-pyridyl)-4-[[(1R)-2,2,2-trifluoro-1-methyl-ethyl]sulfamoyl]pyrrole-2-carboxamide] | > 25000 nM | > 1000 nM | > 1000 nM | 195.2 °C | 
4 | C[C@@H](NS(=O)(=O)c1cn(C)c(C(=O)Nc2ccnc(C(F)F)c2)c1Cl)C(F)(F)F [Compound 74, 3-chloro-N-[2-(difluoromethyl)-4-pyridyl]-1-methyl-4-[[(1R)-2,2,2-trifluoro-1-methyl-ethyl]sulfamoyl]pyrrole-2-carboxamide] | > 25000 nM | 20 nM | 20 nM |  | > 25000 nM
5 | C[C@@H](NS(=O)(=O)c1cn(C)c(C(=O)Nc2ccnc(C#N)c2)c1Cl)C(F)(F)F [Compound 9, 3-Chloro-N-(2-cyanopyridin-4-yl)-1-methyl-4-{[(1R)-2,2,2-trifluoro-1-methylethyl]sulfamoyl}-1H-pyrrole-2-carboxamide] | > 25000 nM | 20 nM | 40 nM | 190.8 °C | > 25000 nM
6 | C[C@@H](NS(=O)(=O)c1cn(C)c(C(=O)Nc2ccnc(Cl)c2)c1F)C(F)(F)F [Compound 20, N-(2-chloro-4-pyridyl)-3-fluoro-1-methyl-[[(1R)-2,2,2-trifluoro-1-methyl-ethyl]sulfamoyl]pyrrole-2-carboxamide] | > 25000 nM | 30 nM | 20 nM |  | > 25000 nM
7 | C[C@@H](NS(=O)(=O)c1cn(C)c(C(=O)Nc2ccnc(Cl)c2)c1Cl)C(F)(F)F [Compound 12, 3-Chloro-N-(2-chloropyridin-4-yl)-1-methyl-4-{[(1R)-2,2,2-trifluoro-1-methylethyl]sulfamoyl}-1H-pyrrole-2-carboxamide] | > 25000 nM | 10 nM | 20 nM | 214.8 °C | > 25000 nM
8 | C[C@@H](NS(=O)(=O)c1cn(C)c(C(=O)Nc2ccnc(F)c2)c1Cl)C(F)(F)F [Compound 11, 3-Chloro-N-(2-fluoropyridin-4-yl)-1-methyl-4-{[(1R)-2,2,2-trifluoro-1-methylethyl]sulfamoyl}-1H-pyrrole-2-carboxamide] | > 25000 nM | 20 nM | 60 nM | 218.1 °C | 
9 | C[C@@H](NS(=O)(=O)c1cn(C)c(C(=O)Nc2ccnc(C(F)F)c2)c1F)C(F)(F)F [Compound 80, N-[2-(difluoromethyl)-4-pyridyl]-3-fluoro-1-methyl-4-[[(1R)-2,2,2-trifluoro-1-methyl-ethyl]sulfamoyl]pyrrole-2-carboxamide] | > 25000 nM | 10 nM | 20 nM |  | > 25000 nM
10 | Cc1nccc(NC(=O)c2c(Cl)c(S(=O)(=O)N[C@H](C)C(F)(F)F)cn2C)c1F [Compound 14, 3-chloro-N-(3-fluoro-2-methyl-4-pyridyl)-1-methyl-4-[[(1R)-2,2,2-trifluoro-1-methyl-ethyl]sulfamoyl]pyrrole-2-carboxamide] | > 25000 nM | 60 nM | 120 nM | 197.8 °C | 
11 | Cn1cc(S(=O)(=O)NC2(C)CC(F)(F)C2)c(Cl)c1C(=O)Nc1ccnc(C(F)F)c1 [Compound 99, 3-chloro-4-[(3,3-difluoro-1-methyl-cyclobutyl)sulfamoyl]-N-[2-(difluoromethyl)-4-pyridyl]-1-methyl-pyrrole-2-carboxamide] | > 25000 nM | 10 nM | 20 nM |  | > 25000 nM
12 | C[C@@H](NS(=O)(=O)c1cn(C)c(C(=O)Nc2ccnc(F)c2)c1F)C(C)(F)F [Compound 98, 4-[[(1R)-2,2-difluoro-1-methyl-propyl]sulfamoyl]-3-fluoro-N-(2-fluoro-4-pyridyl)-1-methyl-pyrrole-2-carboxamide] | > 25000 nM | 40 nM | 30 nM |  | > 25000 nM
13 | Cn1cc(S(=O)(=O)NC2(C(F)(F)F)CCC2)c(Cl)c1C(=O)Nc1ccnc(C#N)c1 [Compound 40, 3-chloro-N-(2-cyano-4-pyridyl)-1-methyl-4-[[1-(trifluoromethyl)cyclobutyl]sulfamoyl]pyrrole-2-carboxamide] | > 25000 nM | 20 nM | 20 nM |  | > 25000 nM
14 | C[C@@H](NS(=O)(=O)c1cn(C)c(C(=O)Nc2cc(F)nc(F)c2)c1F)C(C)(F)F [Compound 159, 4-[[(1R)-2,2-difluoro-1-methyl-propyl]sulfamoyl]-N-(2,6-difluoro-4-pyridyl)-3-fluoro-1-methyl-pyrrole-2-carboxamide] | > 25000 nM | < 100 nM | 9 nM |  | > 25000 nM
15 | Cc1c(S(=O)(=O)N[C@H](C)C(F)(F)F)c(Cl)c(C(=O)Nc2ccnc(C#N)c2)n1C [Compound 32, 3-chloro-N-(2-cyano-4-pyridyl)-1,5-dimethyl-4-[[(1R)-2,2,2-trifluoro-1-methyl-ethyl]sulfamoyl]pyrrole-2-carboxamide] | > 25000 nM | 20 nM | 20 nM |  | > 25000 nM
16 | C[C@@H](NS(=O)(=O)c1cn(C)c(C(=O)Nc2ccnc(Br)c2)c1Cl)C(C)(F)F [Compound 105, N-(2-bromo-4-pyridyl)-3-chloro-4-[[(1R)-2,2-difluoro-1-methyl-propyl]sulfamoyl]-1-methyl-pyrrole-2-carboxamide] | > 25000 nM | < 100 nM | 20 nM |  | 23300 nM
17 | Cc1cc(NC(=O)c2c(F)c(S(=O)(=O)N[C@H](C)C(F)(F)F)cn2C)cc(F)n1 [Compound 152, 3-fluoro-N-(2-fluoro-6-methyl-4-pyridyl)-1-methyl-4-[[(1R)-2,2,2-trifluoro-1-methyl-ethyl]sulfamoyl]pyrrole-2-carboxamide] | > 25000 nM | < 100 nM | 10 nM |  | > 25000 nM
18 | C[C@@H](NS(=O)(=O)c1cn(C)c(C(=O)Nc2ccnc(Br)c2)c1F)C(F)(F)F [Compound 23, N-(2-bromo-4-pyridyl)-3-fluoro-1-methyl-4-[[(1R)-2,2,2-trifluoro-1-methyl-ethyl]sulfamoyl]pyrrole-2-carboxamide] | > 25000 nM | 10 nM | 10 nM |  | > 25000 nM
19 | C[C@@H](NS(=O)(=O)c1cn(C)c(C(=O)Nc2cc(F)nc(F)c2)c1Cl)C(C)(F)F [Compound 104, 3-chloro-4-[[(1R)-2,2-difluoro-1-methyl-propyl]sulfamoyl]-N-(2,6-difluoro-4-pyridyl)-1-methyl-pyrrole-2-carboxamide] | > 25000 nM | < 100 nM | 10 nM |  | > 25000 nM
20 | C[C@@H](NS(=O)(=O)c1cn(C)c(C(=O)Nc2cccnc2)c1Cl)C(F)(F)F [Compound 17, 3-chloro-1-methyl-N-(3-pyridyl)-4-[[(1R)-2,2,2-trifluoro-1-methyl-ethyl]sulfamoyl]pyrrole-2-carboxamide] | > 25000 nM | 750 nM | 530 nM | 196.6 °C | 
21 | C[C@@H](NS(=O)(=O)c1cn(C)c(C(=O)Nc2ccnc(C#N)c2)c1F)C(C)(F)F [Compound 63, N-(2-cyano-4-pyridyl)-4-[[(1R)-2,2-difluoro-1-methyl-propyl]sulfamoyl]-3-fluoro-1-methyl-pyrrole-2-carboxamide] | > 25000 nM | 10 nM | 30 nM |  | > 25000 nM
22 | Cn1cc(S(=O)(=O)NC2(C(F)(F)F)CCC2)c(Cl)c1C(=O)Nc1ccnc(Cl)c1 [Compound 46, 3-chloro-N-(2-chloro-4-pyridyl)-1-methyl-4-[[1-(trifluoromethyl)cyclobutyl]-sulfamoyl]pyrrole-2-carboxamide] | > 25000 nM | 10 nM | 20 nM |  | > 25000 nM
23 | C[C@@H](NS(=O)(=O)c1cn(C)c(C(=O)Nc2ccnc(C#N)c2)c1F)C(F)(F)F [Compound 18, N-(2-Cyanopyridin-4-yl)-3-fluoro-1-methyl-4-{[(1R)-2,2,2-trifluoro-1-methylethyl]sulfamoyl}-1H-pyrrole-2-carboxamide] | > 25000 nM | 30 nM | 30 nM |  | > 25000 nM
24 | C[C@@H](NS(=O)(=O)c1cn(C)c(C(=O)Nc2ccncc2)c1Cl)C(F)(F)F [Compound 16, 3-chloro-1-methyl-N-(4-pyridyl)-4-[[(1R)-2,2,2-trifluoro-1-methyl-ethyl]sulfamoyl]pyrrole-2-carboxamide] | > 25000 nM | 400 nM | 280 nM | 259.3 °C | 
25 | Cc1nc(NC(=O)c2c(Cl)c(S(=O)(=O)N[C@H](C)C(F)(F)F)cn2C)ccc1F [Compound 7, 3-Chloro-N-(5-fluoro-6-methylpyridin-2-yl)-1-methyl-4-{[(1R)-2,2,2-trifluoro-1-methylethyl]sulfamoyl}-1H-pyrrole-2-carboxamide] | > 25000 nM | 90 nM | 250 nM | 173.1 °C | > 25000 nM
